Columns and labels:
[1] = tested on: Monographella nivalis (Microdochium nivale); test: Monographella nivalis (Microdochium nivale)/Liquid Culture (Foot Rot Cereals); type: cell-based; settings: liquid culture, compared to untreated control
Method: (§1) Conidia of the fungus from cryogenic storage are directly mixed into nutrient broth (PDB potato dextrose broth). After placing a (DMSO) solution of test compound into a microtiter plate (96-well format), the nutrient broth containing the fungal spores is added.

[2] = tested on: Phaeosphaeria nodorum (Septoria nodorum); test: Phaeosphaeria nodorum (Septoria nodorum)/Wheat/Leaf Disc Preventative (Glume Blotch); type: in vivo; settings: Parastagonospora nodorum, foliar, wheat leaf disc preventative, compared to untreated control
Method: Wheat leaf segments cv. Kanzler are placed on agar in a multiwell plate (24-well format) and sprayed with the formulated test compound diluted in water. The leaf disks are inoculated with a spore suspension of the fungus 2 days after application. The inoculated test leaf disks are incubated at 20° C. and 75% rh under a light regime of 12 h light/12 h darkness in a climate cabinet and the activity of a compound is assessed as percent disease control compared to untreated when an appropriate level of disease damage appears in untreated check leaf disks (5-7 days after application).

[3] = tested on: Mycosphaerella graminicola (Septoria tritici); test: Mycosphaerella graminicola (Septoria tritici)/Liquid Culture (Septoria Blotch); type: cell-based; settings: Zymoseptoria tritici; 20 ppm; liquid culture; compared to untreated control
Method: Conidia of the fungus from cryogenic storage are directly mixed into nutrient broth (PDB potato dextrose broth). After placing a (DMSO) solution of test compound into a microtiter plate (96-well format), the nutrient broth containing the fungal spores is added. […] The data are presented as the percentage of disease control of each compound for the biological tests against G. lagenarium (Example B3), P. recondita preventative (Example B13), P. teres (Example B15) and M. graminicola (Example B19) as described above. The testing rates of each biological test is specifically described in table C1 below.

[4] = tested on: Glomerella lagenarium (Colletotrichum lagenarium); test: Glomerella lagenarium (Colletotrichum lagenarium)/Liquid Culture (Anthracnose); type: cell-based; settings: Colletotrichum orbiculare, liquid culture, compared to untreated control
[5] = tested on: Puccinia recondita f. sp. tritici; test: Puccinia recondita f. sp. tritici/Wheat/Leaf Disc Preventative (Brown Rust); type: in vivo; settings: foliar, 200 ppm, wheat leaf disc preventative, compared to untreated control, read-out: control of Puccinia recondita f. sp. tritici
[6] = tested on: Magnaporthe grisea (Pyricularia oryzae); test: whole plant or invertebrate; type: in vivo; settings: foliar, read-out: control of Magnaporthe grisea
[7] = tested on: Blumeria graminis f. sp. tritici (Erysiphe graminis f. sp. tritici); test: Blumeria graminis f. sp. tritici/Wheat/Leaf Disc Preventative (Powdery Mildew on Wheat); type: in vivo; settings: foliar, wheat leaf disc preventative, compared to untreated control
Method: Wheat leaf segments cv. Kanzler are placed on agar in a multiwell plate (24-well format) and sprayed with the formulated test compound diluted in water. The leaf disks are inoculated by shaking powdery mildew infected plants above the test plates 1 day after application. The inoculated leaf disks are incubated at 20° C. and 60% rh under a light regime of 24 h darkness followed by 12 h light/12 h darkness in a climate chamber and the activity of a compound is assessed as percent disease control compared to untreated when an appropriate level of disease damage appears on untreated check leaf segments (6-8 days after application).

[8] = tested on: Botryotinia fuckeliana (Botrytis cinerea); test: Botryotinia fuckeliana (Botrytis cinerea)/Liquid Culture (Gray Mould); type: cell-based; settings: liquid culture, compared to untreated control
Method: Conidia of the fungus from cryogenic storage are directly mixed into nutrient broth (Vogels broth). After placing a (DMSO) solution of test compound into a microtiter plate (96-well format), the nutrient broth containing the fungal spores is added.

[9] = tested on: Mycosphaerella arachidis (Cercospora arachidicola); test: Mycosphaerella arachidis (Cercospora arachidicola)/Liquid Culture (Early Leaf Spot); type: cell-based; settings: liquid culture, compared to untreated control
Method: as §1

Plasmopara viticola = test: whole plant or invertebrate; type: in vivo; settings: foliar, read-out: control of Plasmopara viticola
Phytophthora infestans = test: whole plant or invertebrate; type: in vivo; settings: in Solanum lycopersicum, foliar, read-out: control of Phytophthora infestans
Phakopsora pachyrhizi = test: Phakopsora pachyrhizi/Soybean/Preventative (Soybean Rust); type: in vivo; settings: foliar, 288 h, 200 ppm, soybean leaf disc preventative, compared to untreated control, read-out: control of Phakopsora pachyrhizi
[10] = tested on: Puccinia recondita f. sp. tritici; test: Puccinia recondita f. sp. tritici/Wheat/Leaf Disc Curative (Brown Rust); type: in vivo; settings: foliar, wheat leaf disc curative, compared to untreated control
Method: Wheat leaf segments cv. Kanzler are placed on agar in multiwell plates (24-well format). The leaf segments are inoculated with a spore suspension of the fungus. Plates are stored in darkness at 19° C. and 75% rh. The formulated test compound diluted in water is applied 1 day after inoculation. The leaf segments are incubated at 19° C. and 75% rh under a light regime of 12 h light/12 h darkness in a climate cabinet and the activity of a compound is assessed as percent disease control compared to untreated when an appropriate level of disease damage appears in untreated check leaf segments (6-8 days after application).

Compound | inhibition of growth at 20 ppm [1] [%] | pest or weed control at 200 ppm [2] [%] | inhibition of growth at 20 ppm [3] [%] | inhibition of growth at 20 ppm [4] [%] | pest or weed control at 200 ppm [5] [%] | pest or weed control at 200 ppm [6] [%] | pest or weed control at 200 ppm [7] [%] | inhibition of growth at 20 ppm [8] [%] | inhibition of growth at 20 ppm [9] [%] | pest or weed control at 200 ppm (Plasmopara viticola) [%] | pest or weed control at 200 ppm (Phytophthora infestans) [%] | pest or weed control at 200 ppm (Phakopsora pachyrhizi) [%] | melting point [°C] | pest or weed control at 200 ppm [10] [%]
CO/C=C(\Oc1cc(-n2ccc(C(F)F)n2)ccc1Br)C(=O)OC [Compound E-86, methyl (Z)-2-[2-bromo-5-[3-(difluoromethyl)pyrazol-1-yl]phenoxy]-3-methoxy-prop-2-enoate] | ≥ 80 | ≥ 80 | ≥ 80 | ≥ 80 | ≥ 80 | ≥ 80 | ≥ 80 | ≥ 80 | ≥ 80 |  |  |  |  | 
CO/C=C(\Oc1cc(-n2ccc(C(F)(F)F)n2)ccc1Br)C(=O)OC [Compound E-87, methyl (Z)-2-[2-bromo-5-[3-(trifluoromethyl)pyrazol-1-yl]phenoxy]-3-methoxy-prop-2-enoate] | ≥ 80 |  | ≥ 80 | ≥ 80 | ≥ 80 |  | ≥ 80 | ≥ 80 | ≥ 80 | ≥ 80 | ≥ 80 | ≥ 50 |  | 
CO/C=C(\Oc1cc(-n2ccc(C3CC3)n2)ccc1Br)C(=O)OC [Compound E-97, methyl (Z)-2-[2-bromo-5-(3-cyclopropylpyrazol-1-yl)phenoxy]-3-methoxy-prop-2-enoate] | ≥ 80 |  | ≥ 80 | ≥ 80 | ≥ 80 |  | ≥ 80 | ≥ 80 | ≥ 80 |  | ≥ 80 | ≥ 50 |  | 
CO/C=C(\Oc1cc(-n2ncc(C3CC3)n2)ccc1C)C(=O)OC [Compound F-8, methyl (Z)-2-[5-(4-cyclopropyltriazol-2-yl)-2-methyl-phenoxy]-3-methoxy-prop-2-enoate] | ≥ 80 | ≥ 80 | ≥ 80 | ≥ 80 |  |  | ≥ 80 | ≥ 80 | ≥ 80 | ≥ 80 | ≥ 80 |  |  | 
CO/C=C(\Oc1cc(-n2ccc(SC(F)(F)F)n2)ccc1C)C(=O)OC [Compound E-61, methyl (Z)-3-methoxy-2-[2-methyl-5-[3-(trifluoromethylsulfanyl)pyrazol-1-yl]phenoxy]prop-2-enoate] | ≥ 80 |  | ≥ 80 | ≥ 80 | ≥ 80 | ≥ 80 | ≥ 80 | ≥ 80 | ≥ 80 | ≥ 80 | ≥ 80 | ≥ 50 | 137 to 139 | 
CO/C=C(\Oc1cc(-n2ccc(CC#N)n2)ccc1C)C(=O)OC [Compound E-33, methyl (Z)-2-[5-[3-(cyanomethyl)pyrazol-1-yl]-2-methyl-phenoxy]-3-methoxy-prop-2-enoate] | ≥ 80 |  | ≥ 80 | ≥ 80 | ≥ 80 |  |  | ≥ 80 | ≥ 80 | ≥ 80 |  |  | 120 to 123 | 
CCc1ccn(-c2ccc(C)c(O/C(=C\OC)C(=O)OC)c2)n1 [Compound E-91, methyl (Z)-2-[5-(3-ethylpyrazol-1-yl)-2-methyl-phenoxy]-3-methoxy-prop-2-enoate] | ≥ 80 |  | ≥ 80 | ≥ 80 | ≥ 80 |  | ≥ 80 | ≥ 80 | ≥ 80 |  |  | ≥ 50 |  | 
CCCc1nn(-c2ccc(C)c(O/C(=C\OC)C(=O)OC)c2)cc1Cl [Compound E-6, methyl (Z)-2-[5-(4-chloro-3-propyl-pyrazol-1-yl)-2-methyl-phenoxy]-3-methoxy-prop-2-enoate] | ≥ 80 | ≥ 80 | ≥ 80 | ≥ 80 | ≥ 80 | ≥ 80 |  | ≥ 80 | ≥ 80 | ≥ 80 | ≥ 80 |  |  | 
CO/C=C(\Oc1cc(-n2cc(COC)cn2)ccc1C)C(=O)OC [Compound E-51, methyl (Z)-3-methoxy-2-[5-[4-(methoxymethyl)pyrazol-1-yl]-2-methyl-phenoxy]prop-2-enoate] | ≥ 80 |  | ≥ 80 | ≥ 80 | ≥ 80 | ≥ 80 | ≥ 80 | ≥ 80 | ≥ 80 | ≥ 80 |  | ≥ 50 |  | ≥ 80
CO/C=C(\Oc1cc(-n2ccc(C)n2)ccc1C)C(=O)OC [Compound E-104, methyl (Z)-3-methoxy-2-[2-methyl-5-(3-methylpyrazol-1-yl)phenoxy]prop-2-enoate] | ≥ 80 | ≥ 80 | ≥ 80 | ≥ 80 | ≥ 80 | ≥ 80 | ≥ 80 | ≥ 80 | ≥ 80 |  |  |  |  | 
CO/C=C(\Oc1cc(-n2ccc(Cl)n2)ccc1C)C(=O)OC [Compound E-100, methyl (Z)-2-[5-(3-chloropyrazol-1-yl)-2-methyl-phenoxy]-3-methoxy-prop-2-enoate] | ≥ 80 | ≥ 80 | ≥ 80 | ≥ 80 | ≥ 80 | ≥ 80 | ≥ 80 | ≥ 80 | ≥ 80 | ≥ 80 | ≥ 80 |  | 150 to 152 | 
CO/C=C(\Oc1cc(-n2ccc(C(F)F)n2)ccc1C)C(=O)OC [Compound E-96, methyl (Z)-2-[5-[3-(difluoromethyl)pyrazol-1-yl]-2-methyl-phenoxy]-3-methoxy-prop-2-enoate] | ≥ 80 | ≥ 80 | ≥ 80 | ≥ 80 | ≥ 80 |  | ≥ 80 | ≥ 80 | ≥ 80 | ≥ 80 | ≥ 80 |  |  | ≥ 80

— patent publication US12043600B2, “Microbiocidal compounds” (SYNGENTA CROP PROTECTION AG, priority 2018, dated 2024)
